Results published in patent publication US8936809B2, “Method for treating prostate diseases based on local delivery of active substances” (Lidds AB, priority 2005, dated 2015).

Assays:
[1] = Observation of behaviour and side effects (diarrhea) in dogs (Example 1); type: in vivo, dog
Description: (§1) First, four male dogs (H1-H4) (Labrador, approx. 1 year of age and weight 30 kg) were given 2-hydroxy-flutamide (25 mg) by single bolus doses intravenously during 30 seconds. The intravenous solution base was sterile saline […], sterile polyethylene glycol 400 46% and ethanol (95%) 6%. Blood samples of 1.0 ml were taken from the Cephalic vein at 5, 10, 15, 30, 60, 90, 120, 240, 360, and 600 minutes. The blood samples were immediately centrifuged at 3000 rpm and the plasma samples were frozen at −80° C. until analysis.
One week later, the same animals were given 2-hydroxy-flutamide locally by a controlled release pharmaceutical composition in the prostate tissue. The 2-hydroxy- flutamide doses were 0 mg (H1), 30 mg (H3), 60 mg (H2) and 120 mg (H4), and each dog was given one implant only. Where H1 was a control given the composition without 2-hydroxy-flutamide. All doses of 2-hydroxy-flutamide were given after an overnight fast. Dog 1 (H1) and dog 3 (H3) were given an enema preoperatively. After the local prostate application of the pharmaceutical composition through rectum, an antibiotic (Quinolon) was administered in normal doses.

in vivo = settings: male, Labrador, dog, iv, 25 mg
Description: as §1
Quantification of 2-hydroxy-flutamide in plasma and tissue samples was done by HPLC-MS. HPLC was performed with a Surveyor HPLC system equipped with a CTC Pal autosampler. The analytical column was a Zorbax Eclipse XDB-18 (2.1 mm×50 mm, particle size 5 μm) connected to a guard column. The eluent consisted of solvent A (aqueous formic acid 0.1%) and B (acetonitrile), a linear gradient from 25 to 90% of solvent B in 5 minutes was applied. The proportion of solvent B was then lowered to 25% in one minute and was allowed to equilibrate at this level for two minutes prior to the next injection. The volumetric flow-rate was 200 μL/min and the injection volume was 20 μL. The HPLC column outlet was coupled to a TSQ Quantum Ultra tandem triple quadrupole mass spectrometer (ThermoFinnigan, San José, Calif., USA). The transition of m/z 291 [M-H]^−→205 was used for 2-hydroxy-flutamide and m/z 316 [M-H]^−→273 was used for nilutamide (internal standard). The limit of quantification was 0.50 ng/ml in dog plasma. Calibration samples were prepared by spiking blank plasma samples with 100 μL of solutions of 2-hydroxy-flutamide at different concentrations. […] The accuracies of the analytical runs were calculated as 100*(mean determined concentration in QC sample/spiked concentration) % and the intra-run precisions were calculated as the relative standard deviation (RSD %) of the determined concentrations at each QC level. […]

[2] = tested on: androgen dependent tissue (bulbourethral gland); assay: Local anti-androgen effect and side effects after implant into bulbourethral gland of male sheep (Example 2); type: in vivo
Description: The major purpose of the present animal study was to examine the pharmacokinetics, efficacy and safety of the novel local drug delivery system with 2-hydroxyflutamide, a selective antagonist to the androgen receptor (AR). A ceramic based drug delivery product was administered into an androgen dependent tissue (the bulbourethral gland) in male sheep. In total 11 male sheep were divided into two separate groups. One group was given 2-hydroxyflutamide by the local implant delivery system as a single administration into the bulbourethral gland and was monitored during 2 months. Each sheep in this treatment group received the prostate implant by a single dose of 250 mg. The other group only received ceramic formulation without any active drug substance.
The implant drug delivery system was inserted locally, via rectum, into the androgen dependent tissue (bulbourethral gland) through sterile needles during rectal ultrasound guidance. The animals were during anaesthesia throughout the insertion procedure. The sterile ceramic based implant had two major components: calcium sulphate (CaSO4-0.5H2O) and 2-hydroxyflutamide. The composition of the formulation was 250 mg 2-hydroxyflutamide+2.25 g calcium sulphate di-hydrate+5.0 g calcium sulphate hemi-hydrate and it was mixed with solution: 3.5 ml of water solution (with 1% acetic acid and 1% methyl cellulose). […]

[3] = Plasma pharmacokinetics and tissue level after controlled release implant into bulbourethral gland of male sheep (Example 2); type: in vivo; settings: three moths after the injection

CC(C)(O)C(=O)Nc1ccc([N+](=O)[O-])c(C(F)(F)F)c1 [2-hydroxy-flutamide]
diarrhea ([1]; after intravenous administration 25 mg): all dogs suffered from diarrhea | diarrhea ([1]; after local administration of the controlled release composition in the prostate tissue): not observed in any animals | Cmax (in vivo; Cmax): 835 ng/mL | half-life (in vivo; elimination half-life): 105 ± 12 min | half-life (in vivo; t1/2): 114 min | androgen dependent side effect ([2]; 250 mg implant into bulbourethral gland): no androgen dependent side effect observed | macroscopic effect on the androgen dependent tissue (bulbourethral gland) ([2]; single intra-gland injection of 250 mg implant): decreased volume and weight | levels in prostate gland [3]: possible to quantify
